{"source": "patent US10000558B2", "about": "“Use of annexin A3 as a diagnostic and prognostic biomarker and therapeutic target for treating hepatocellular carcinoma” (The University of Hong Kong, priority 2013, dated 2018)", "key": {"Huh7 cells": {"system": "Huh7 cells", "test": "Apoptosis analysis by Annexin V-PI flow cytometry", "assay_type": "cell-based, human", "settings": "for 5-fluorouracil-induced apoptosis: 5-fluorouracil 150 µg/ml for 48 hrs; for STS-induced apoptosis: STS 1 μg/ml for 6 hrs; for Cisplatin-induced apoptosis: cisplatin 5 μg/ml for 48 hrs", "procedure": "Cells were treated with cisplatin (5 μg/ml) or 5-fluorouracil ([…]) for 48 hrs, apoptosis inducer staurosporin (STS, 1 μg/ml) for 6 hrs. Cells would then be subsequently harvested and stained in binding buffer, propidium iodide (PI) and FITC-conjugated Annexin V as provided by the Annexin-V FLUOS Staining Kit (Roche Diagnostics) according to manufacturer's instructions. Analysis was determined by a FACS Canto II (BD Biosciences) and FlowJo software (Tree Star, Inc.).\nThe effect of ANXA3 on resistance to apoptosis and chemotherapy was investigated by Annexin V-PI staining followed by flow cytometry analysis. To investigate whether ANXA3 expression in HCC confers enhanced resistance to chemotherapy and apoptosis, Huh7 cells with or without ANXA3 repressed were treated with the apoptosis inducer staurosporin (STS) or chemotherapeutic reagents, 5-fluorouracil (5-FU) or cisplatin, in vitro and analyzed for apoptotic/necrotic cells by flow cytometry. […] Upon stable ANXA3 knockdown in Huh7 and PLC8024 HCC cells, HCC cells became less resistant to the apoptosis inducer, staurosporin (STS) and chemotherapy, 5-fluorouracil and cisplatin, resulting in a significant increase in apoptotic/necrotic cells."}, "[1]": {"system": "HCC Huh7 cells or HCC primary cells", "test": "Subcutaneous HCC xenograft treatment in NOD-SCID mice", "assay_type": "in vivo", "procedure": "Immunodeficient NOD-SCID mice transplanted subcutaneously with HCC Huh7 cells or HCC primary cells were injected with PBS, mouse IgG control ANXA3 mAb, cisplatin or a combination of ANXA3 mAb and cisplatin over a period of 3 weeks (FIGS. 4A, B and C)."}, "[2]": {"settings": "Huh7 ANXA3 repressed clones (two clones, values not assigned)"}}, "note": "Where “and” joins values, the source holds several entries; their conditions need not be identical. Equal values may be shown once.", "data": [{"smiles": "O=c1[nH]cc(F)c(=O)[nH]1", "note": "[5-fluorouracil]", "values": [{"measurement": "5-fluorouracil-induced apoptosis", "setting": "Huh7 cells; [2]", "value": "39.4% and 55.51%"}, {"measurement": "5-fluorouracil-induced apoptosis", "setting": "Huh7 cells; Huh7 control (NTC) cells", "value": 30.1, "unit": "%"}]}, {"smiles": "CN[C@@H]1C[C@H]2O[C@@](C)([C@@H]1OC)n1c3ccccc3c3c4c(c5c6ccccc6n2c5c31)C(=O)NC4", "note": "[STS, staurosporin]", "values": [{"measurement": "STS-induced apoptosis", "setting": "Huh7 cells; [2]", "value": "53.58% and 52.3%"}, {"measurement": "STS-induced apoptosis", "setting": "Huh7 cells; Huh7 control (NTC) cells", "value": 43.72, "unit": "%"}]}, {"smiles": "N.N.[Cl][Pt][Cl]", "note": "[cisplatin, reference compound]", "values": [{"measurement": "tumor formation after serial transplantation of residual tumor into secondary mouse recipients", "setting": "[1]; FIG. 4D", "value": "resulted in tumor formation and recurrence"}, {"measurement": "tumor growth / tumor volume", "setting": "[1]; NOD-SCID mice, subcutaneous transplant, injections over 3 weeks, FIG. 4A, B", "value": "marked reduction in tumor volume"}, {"measurement": "CD133+ liver CSC subset in tumor", "setting": "[1]; flow cytometric analysis of residual tumors, FIG. 4C", "value": "enriched"}, {"measurement": "Cisplatin-induced apoptosis", "setting": "Huh7 cells; [2]", "value": "38.4% and 41.1%"}, {"measurement": "Cisplatin-induced apoptosis", "setting": "Huh7 cells; Huh7 control (NTC) cells", "value": 26.73, "unit": "%"}]}]}
